Consider 8 compounds from patent US4692447A, “Tricyclic dihydropyridazinones and pharmaceutical compositions containing them” (Boehringer Biochemia Robin, S.p.A., priority 1984, dated 1987).

SMILES strings stand for the structures. Bounds are passed on as bounds.

Data set [1] relates to sudden death induced by arachidonate in mice. Kind of data set: protection against sudden death induced by arachidonate in mice. The conditions noted are these: oral; for protection against sudden death compared with ASA: 20 mg/kg vs ASA 200 mg/kg; for increase of protection as compared with ASA: screening dosage 20 mg/kg vs ASA 200 mg/kg. The format is in vivo. The text has this:
The same compounds from BBR-1507 to BBR-1513, given orally, protected against sudden death induced by arachidonate in mice.

Data set [2] in a line: acute toxicity in mice (LD50). The conditions noted are these: mouse, in vivo. On the procedure:
First of all, the compounds of the present invention are characterized by a low acute toxicity and a very favourable therapeutic index.
The compounds were administered by oral and intraperitoneal route.

Data set [3] has as its system conscious normal and in spontaneously hypertensive rats. Kind of data set: hypotensive effect in conscious normal and spontaneously hypertensive rats. The format is in vivo. On the procedure:
This is particularly the case of compounds like as BBR-1511, 1513 and 1509 which show only a little (5-8 mmHg) even if prolonged hypotensive effect when tested in conscious normal and in spontaneously hypertensive rats at doses ranging from 100 to 200 mg/kg by intraperitoneal route.

Data set [4] deals with SHR Rats. Kind of data set: hypotensive effect in conscious spontaneously hypertensive rats (Table 2). The format is in vivo. The arrangement: ΔBP sist: unit not given here. From the text:
(§1) As it is shown in Table 2, the decrease of the systolic median blood pressure was long lasting and the length of the effect was dose-related.

Data set [5] concerns paw edema induced by carrageenin. The data set is described as follows: paw edema induced by carrageenin. The format is in vivo. The conditions noted are these: 20, 60 and 200 mg/kg; for reducing the paw edema induced by carrageenin: oral route; for activity in paw edema relative to ASA: oral, more active than ASA. On the technique in general: The carrageenan paw model is a standard test of acute inflammation.

Data set [6] concerns Normotensive rats. Kind of data set: hypotensive effect in conscious normotensive rats (Table 2). The class given is in vivo. The conditions noted are these: os.
From the text: as §1

For data set [7], the system named is platelet-rich plasma (PRP) from guinea pigs. The data set is described as follows: in vitro platelet aggregation in platelet-rich plasma, Born aggregometer. The conditions noted are these: vs ASA. The class given is cell-based.
Data set [8] concerns sudden death induced by arachidonate in mice. Kind of data set: protection against sudden death induced by arachidonate in mice. The conditions noted are these: vs ASA.
[9] abbreviates: conscious normal and SHR rats, 100 to 200 mg/kg, intraperitoneal, prolonged.
[10] abbreviates: intraperitoneal and oral, conscious normotensive and SHR rats, qualitative.

As a reminder, the LD50 is the dose expected to kill half of the subjects tested. Regarding `CCCCN1N=C2c3ccc(N)cc3CCC2CC1=O` (racemic) [BBR-1511], the “protection against sudden death compared with ASA” value in data set [1] is “equiactive as acetylsalicylic acid (ASA)”. Further, the LD50 in data set [2] (ip) is 1000 mg/kg; in data set [2] (po, os) it was greater than 1000 mg/kg. Besides, in data set [3] (setting [9]), the hypotensive effect is given as 5-8 mmHg.

Consider `Nc1ccc2c(c1)CCC1CC(=O)NN=C21` (racemic) [BBR-1510, dl-8-amino-4,4a,5,6-tetrahydro-2H-benzo(h)-cinnolin-3-one], for which the “increase of protection as compared with ASA” value (“increase of protection” below) in data set [1] is listed as 20-30%. Besides, the LD50 in data set [2] (ip) is 610 mg/kg; in data set [2] (po, os), greater than 1000 mg/kg. Also, the “duration” value in data set [4] (i.p., 6.25 mg/kg) was 1 h; in data set [4] (i.p., 12.5 mg/kg), greater than 4 h; in data set [4] (os, 1.56 mg/kg) it was 1 h; in data set [4] (os, 3.125 mg/kg), 2 h; in data set [4] (os, 6.25 mg/kg) it was 3.4 h; in data set [4] (os, 12.5 mg/kg), greater than 3 h. Further, the “duration” value in data set [6] (12.5 mg/kg) was greater than 6 h. The ΔBP sist in data set [4] (i.p., 6.25 mg/kg) is -55; in data set [4] (i.p., 12.5 mg/kg) it was -80; in data set [4] (os, 1.56 mg/kg), -48; in data set [4] (os, 3.125 mg/kg), -46; in data set [4] (os, 6.25 mg/kg), -40; in data set [4] (os, 12.5 mg/kg), -60. In data set [6] (12.5 mg/kg), the ΔBP sist is given as -28. Also, the “reducing the paw edema induced by carrageenin” value (from here on “reducing the paw edema induced”) in data set [5] is “effective in reducing the paw edema”. Besides, in data set [5], the “activity in paw edema relative to ASA” value is 1.5-2 times. Also, in data set [3] (setting [10]), the hypotensive effect result is “more evident and prolonged hypotensive effect”.

For `CC(=O)Nc1ccc2c(c1)CCCC1CC(=O)NN=C21` (racemic) [BBR-1509, dl-8-acetylamino-2,4,4a,5,6,7-hexahydro-3H-benzo[6,7]-cyclohepten[1,2-c]-pyridazin-3-one], the “inhibiting platelet aggregation in vitro compared with ASA” value in data set [7] is “at least equiactive as ASA”. Besides, the “protection against sudden death compared with ASA” value in data set [1] is “equiactive as acetylsalicylic acid (ASA)”. Besides, the LD50 was greater than 1000 mg/kg in data set [2] (ip) and greater than 1000 mg/kg in data set [2] (po, os). Besides, the “inhibiting platelet aggregation in vivo compared with ASA” value in data set [8] is reported as “at least equiactive as ASA”. In data set [5], the “reducing the paw edema induced” value was “inactive”. For the same compound, the hypotensive effect in data set [3] (setting [9]) is 5-8 mmHg.

Take `O=C1CC2CCc3cc(NC(=O)CCl)ccc3C2=NN1` (racemic) [BBR-1514, dl-8-chloroacetylamino-4,4a,5,6-tetrahydro-2H-benzo(h)-cinnolin-3-one]: the “inhibiting platelet aggregation in vitro compared with ASA” value in data set [7] is listed as “at least equiactive as ASA”. Also, the LD50 in data set [2] (ip) was greater than 1000 mg/kg; in data set [2] (po, os) it was greater than 1000 mg/kg. In addition, in data set [8], the “inhibiting platelet aggregation in vivo compared with ASA” value was “at least equiactive as ASA”. For the same compound, the “reducing the paw edema induced” value in data set [5] is “inactive”.

With `Nc1ccc2c(c1)CCCC1CC(=O)NN=C21` (racemic) [BBR-1513, dl-9-amino-2,4,4a,5,6,7-hexahydro-3H-benzo-[6,7]-cyclohepten[1,2-c]-pyridazin-3-one], the “inhibiting platelet aggregation in vitro compared with ASA” value in data set [7] is “at least equiactive as ASA”. In addition, the “protection against sudden death compared with ASA” value in data set [1] is listed as “equiactive as acetylsalicylic acid (ASA)”. Also, the LD50 in data set [2] (ip) was 483 mg/kg; in data set [2] (po, os), 700 mg/kg. Also, in data set [8], the “inhibiting platelet aggregation in vivo compared with ASA” value is reported as “at least equiactive as ASA”. Moreover, in data set [5], the “reducing the paw edema induced” value is given as “scarcely effective”. In addition, in data set [3] (setting [9]), the hypotensive effect was 5-8 mmHg.

Consider `CC(=O)Nc1ccc2c(c1)CCC1CC(=O)NN=C21` (racemic) [BBR-1508, dl-8-acetylamino-4,4a,5,6-tetrahydro-2H-benzo(h)-cinnolin-3-one], for which the “increase of protection” value in data set [1] was 40%. For the same compound, the 50% lethal dose (LD50) in data set [2] (ip) was 360 mg/kg; in data set [2] (po, os), greater than 1000 mg/kg. Besides, the “duration” value in data set [4] (i.p., 12.5 mg/kg) was determined as 3 h; in data set [4] (i.p., 25 mg/kg), 3 h; in data set [4] (os, 3.125 mg/kg), 2 h; in data set [4] (os, 6.25 mg/kg) it was 4 h; in data set [4] (os, 12.5 mg/kg) it was 4.6 h; in data set [4] (os, 25 mg/kg), 4.6 h. In addition, the “duration” value is 1.5 h in data set [6] (6.25 mg/kg), 4 h in data set [6] (12.5 mg/kg) and 4 h in data set [6] (25 mg/kg). Also, the ΔBP sist in data set [4] (i.p., 12.5 mg/kg) was -50; in data set [4] (i.p., 25 mg/kg) it was -90; in data set [4] (os, 3.125 mg/kg), -30; in data set [4] (os, 6.25 mg/kg), -30; in data set [4] (os, 12.5 mg/kg) it was -55; in data set [4] (os, 25 mg/kg) it was -65. Moreover, the ΔBP sist result is “inactive” in data set [6] (3.125 mg/kg), -8 in data set [6] (6.25 mg/kg), -20 in data set [6] (12.5 mg/kg) and -48 in data set [6] (25 mg/kg). Besides, in data set [5], the “reducing the paw edema induced” value is “effective in reducing the paw edema”. Also, the “activity in paw edema relative to ASA” value in data set [5] is on record as 1.5-2 times. In addition, the hypotensive effect result in data set [3] (setting [10]) is “more evident and prolonged hypotensive effect”.

With `CC(=O)Nc1ccc2c(c1)CC1CC(=O)NN=C21` (racemic) [BBR-1507, dl-7-acetylamino-4,4a-dihydro-5H-indeno-[1,2-c]pyridazin-3-one], the “increase of protection” value in data set [1] was 20-30%. The LD50 in data set [2] (ip) is 310 mg/kg; in data set [2] (po, os), greater than 1000 mg/kg. The “duration” value was greater than 4 h in data set [4] (i.p., 50 mg/kg); 1.5 h in data set [4] (os, 1.56 mg/kg); 3 h in data set [4] (os, 3.125 mg/kg); greater than 4 h in data set [4] (os, 6.25 mg/kg); 5.6 h in data set [4] (os, 12.5 mg/kg); 3 h in data set [6] (6.25 mg/kg). Moreover, the “duration” value in data set [6] (12.5 mg/kg) came out at 3 h. Further, the ΔBP sist is -55 in data set [4] (i.p., 50 mg/kg); -18 in data set [4] (os, 1.56 mg/kg); -25 in data set [4] (os, 3.125 mg/kg); -50 in data set [4] (os, 6.25 mg/kg); -58 in data set [4] (os, 12.5 mg/kg); -8 in data set [6] (6.25 mg/kg). The compound further gave a ΔBP sist in data set [6] (12.5 mg/kg) of -26. Moreover, the “reducing the paw edema induced” value in data set [5] is listed as “effective in reducing the paw edema”. The “activity in paw edema relative to ASA” value in data set [5] is 1.5-2 times. Moreover, the hypotensive effect entry in data set [3] (setting [10]) was “more evident and prolonged hypotensive effect”.

On to `Nc1ccc2c(c1)CC1CC(=O)NN=C21` (racemic) [BBR-1512, dl-7-amino-4,4a-dihydro-5H-indeno[1,2-c]-pyridazin-3-one], for which the “increase of protection” value in data set [1] is on record as 20-30%. Moreover, the 50% lethal dose (LD50) in data set [2] (ip) was 200 mg/kg; in data set [2] (po, os), 400 mg/kg.
